Values of other authors, collected in US20060148833A1, “Use of chymase inhibitors for the prevention and/or treatment of arterio-venous graft failure” (priority 2002, published 2006).

Columns and labels:
dog carotid artery = dog carotid artery balloon injury model
vein graft = conditions: dog model of vein graft injury
[1] = test system: balloon-injured dog coronary arteries; conditions: by suppression of vascular chymase levels
[2] = test system: restenosis following PTCA; conditions: oral administration over three months, clinical trials

O=CNc1cnc(-c2ccccc2)n(CC(=O)NC(Cc2ccccc2)C(=O)C(=O)CCCOc2ccccn2)c1=O (stereo not shown) [NK3201, 2-(5-formylamino-6-oxo-3-phenyl-1,6,-dihydropyrmidine-1-yl)-N-{2,3-dioxo-6-(2-pyridyloxy)-1-phenylmethyl}hexyl acetamide]
intimal hyperplasia (dog carotid artery): inhibit intimal hyperplasia | vascular proliferation and subsequent neointima formation (vein graft): inhibit vascular proliferation and subsequent neointima formation

COc1ccc(C=CC(=O)Nc2ccccc2C(=O)O)cc1OC [Tranilast, N-(3,4-dimethoxycinnamoyl) anthranilic acid]
neointima formation [1]: suppresses neointima formation | rate of restenosis following PTCA [2]: markedly reduce the rate of restenosis
